Laboratory results: US20150157739A1, “Imidazo[2,1]thiazol-3-one derivatives” (Hoffmann-La Roche Inc., priority 2012, published 2015)

Legend:
[1] = target: T1, aggregated recombinant human-microtubule associated protein Tau (Homo sapiens, UniProt P10636); test: Thiazin-red R displacement fluorescence assay on aggregated Tau; assay type: binding; conditions: displacement of Thiazin-red R from aggregated Tau; compound 0.3 nM to 10000 nM; 30 min room temperature; Ex 531 nm/Em 595 nm
T1 construct: Recombinant human-microtubule associated protein Tau purified from E. coli is aggregated at a concentration of 5 μM with Arachidonic Acid (100 μM) in Tris 10 mM pH8, 24 h at 37° C

[2] = target: T2, aggregated synthetic Aβ40 (Homo sapiens, UniProt P05067); test: Thiazin-red R displacement fluorescence assay on aggregated A-beta; assay type: binding; conditions: displacement of Thiazin-red R from aggregated Aβ40; compound 0.3 nM to 10000 nM; 30 min room temperature; Ex 531 nm/Em 595 nm
T2 construct: Synthetic Aβ40 is aggregated at a concentration of 50 μM
T2 sequence (P05067 672-711 limits assumed): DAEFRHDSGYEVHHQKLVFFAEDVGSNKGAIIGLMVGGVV

T1 sequence (P10636 whole entry): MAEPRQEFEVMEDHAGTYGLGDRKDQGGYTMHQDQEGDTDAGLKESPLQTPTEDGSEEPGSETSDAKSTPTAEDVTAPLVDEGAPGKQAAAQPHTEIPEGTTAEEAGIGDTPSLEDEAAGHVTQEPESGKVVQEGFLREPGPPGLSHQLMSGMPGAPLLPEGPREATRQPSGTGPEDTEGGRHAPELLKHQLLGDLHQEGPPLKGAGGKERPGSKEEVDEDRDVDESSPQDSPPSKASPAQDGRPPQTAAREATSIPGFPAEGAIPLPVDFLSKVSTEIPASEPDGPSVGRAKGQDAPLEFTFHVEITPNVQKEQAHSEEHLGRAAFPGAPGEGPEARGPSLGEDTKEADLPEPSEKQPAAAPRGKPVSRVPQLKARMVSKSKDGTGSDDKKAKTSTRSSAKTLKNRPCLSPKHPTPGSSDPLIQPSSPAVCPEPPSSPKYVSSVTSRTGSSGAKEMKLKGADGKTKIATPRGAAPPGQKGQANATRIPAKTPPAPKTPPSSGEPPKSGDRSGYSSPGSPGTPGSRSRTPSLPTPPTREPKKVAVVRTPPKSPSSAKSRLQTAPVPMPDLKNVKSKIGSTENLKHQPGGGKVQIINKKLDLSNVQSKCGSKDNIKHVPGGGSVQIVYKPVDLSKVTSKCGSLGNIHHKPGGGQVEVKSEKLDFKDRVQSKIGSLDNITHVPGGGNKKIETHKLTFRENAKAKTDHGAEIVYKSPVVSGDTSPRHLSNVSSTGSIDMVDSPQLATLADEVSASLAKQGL

Row | Compound | IC50 [1] [nM] | IC50 [2] [nM]
1 | CCCOc1cc(/C=c2\sc3nc(-c4ccc(Cl)cc4)cn3c2=O)cc(OC)c1O [Example 31, 6-(4-Chloro-phenyl)-2-[1-(4-hydroxy-3-methoxy-5-propoxy-phenyl)-meth-(Z)-ylidene]-imidazo[2,1-b]thiazol-3-one] | 3 | 12
2 | COc1cc(/C=c2\sc3nc(-c4ccc(C(=O)N5CCC(F)CC5)cc4)cn3c2=O)cc(Cl)c1O [Example 127, 2-[1-(3-Chloro-4-hydroxy-5-methoxy-phenyl)-meth-(Z)-ylidene]-6-[4-(4-fluoro-piperidine-1-carbonyl)-phenyl]-imidazo[2,1-b]thiazol-3-one] | 6 | 118
3 | COc1cc(/C=c2\sc3nc(-c4cccc(C(=O)N(C)CCc5cccc(F)c5)c4)cn3c2=O)cc(Cl)c1O [Example 118, 3-{2-[1-(3-Chloro-4-hydroxy-5-methoxy-phenyl)-meth-(Z)-ylidene]-3-oxo-2,3-dihydro-imidazo[2,1-b]thiazol-6-yl}-N-[2-(3-fluoro-phenyl)-ethyl]-N-methyl-benzamide] | 12.9 | > 10000
4 | COc1cc(/C=c2\sc3nc(-c4ccc(C(=O)N5CC(F)C5)cc4)cn3c2=O)cc(Cl)c1O [Example 134, 2-[1-(3-Chloro-4-hydroxy-5-methoxy-phenyl)-meth-(Z)-ylidene]-6-[4-(3-fluoro-azetidine-1-carbonyl)-phenyl]-imidazo[2,1-b]thiazol-3-one] | 2 | 133
5 | COc1cc(/C=c2\sc3nc(-c4cccc(C(=O)NCCF)c4)cn3c2=O)cc(Cl)c1O [Example 106, 3-{2-[1-(3-Chloro-4-hydroxy-5-methoxy-phenyl)-meth-(Z)-ylidene]-3-oxo-2,3-dihydro-imidazo[2,1-b]thiazol-6-yl}-N-(2-fluoro-ethyl)-benzamide] | 8 | 1080
6 | COc1cc(/C=c2\sc3nc(-c4ccc(C#N)cc4)cn3c2=O)cc(Cl)c1O [Example 87, 4-{2-[1-(3-Chloro-4-hydroxy-5-methoxy-phenyl)-meth-(Z)-ylidene]-3-oxo-2,3-dihydro-imidazo[2,1-b]thiazol-6-yl}-benzonitrile] | 0.3 | 6
7 | COc1cc(/C=c2\sc3nc(-c4cc(F)cc(F)c4)cn3c2=O)cc(Cl)c1O [Example 49, 2-[1-(3-Chloro-4-hydroxy-5-methoxy-phenyl)-meth-(Z)-ylidene]-6-(3,5-difluoro-phenyl)-imidazo[2,1-b]thiazol-3-one] | 16 | 1370
8 | COc1cc(/C=c2\sc3nc(-c4ccc(C(=O)N(C)CCF)cc4)cn3c2=O)cc(F)c1O [Example 146] | 48 | 1010
9 | COc1cc(/C=c2\sc3nc(-c4ccc(Cl)cc4)cn3c2=O)cc(C)c1O [Example 32, 6-(4-Chloro-phenyl)-2-[1-(4-hydroxy-3-methoxy-5-methyl-phenyl)-meth-(Z)-ylidene]-imidazo[2,1-b]thiazol-3-one] | 7 | 39
10 | COc1cc(/C=c2\sc3nc(-c4ccc(C(=O)N(C)CCOCCF)cc4)cn3c2=O)cc(Cl)c1O [Example 23, 4-{2-[1-(3-Chloro-4-hydroxy-5-methoxy-phenyl)-meth-(Z)-ylidene]-3-oxo-2,3-dihydro-imidazo[2,1-b]thiazol-6-yl}-N-[2-(2-fluoro-ethoxy)-ethyl]-N-methyl-benzamide] | 26 | 328
11 | COc1cc(/C=c2\sc3nc(-c4ccc(C(F)(F)F)c(F)c4)cn3c2=O)cc(OC)c1O [Example 29] | 11 | 43
12 | CCCOc1cc(/C=c2\sc3nc(-c4cnc[nH]4)cn3c2=O)cc(Cl)c1O [Example 119, 2-[1-(3-Chloro-4-hydroxy-5-propoxy-phenyl)-meth-(Z)-ylidene]-6-(3H-imidazol-4-yl)-imidazo[2,1-b]thiazol-3-one] | 60 | 3120
13 | COc1cc(/C=c2\sc3nc(-c4cccc(OC(F)F)c4)cn3c2=O)cc(Cl)c1O [Example 62, 2-[1-(3-Chloro-4-hydroxy-5-methoxy-phenyl)-meth-(Z)-ylidene]-6-(3-(difluoromethoxy)-phenyl)-imidazo[2,1-b]thiazol-3-one] | 6 | 4160
14 | COc1cc(/C=c2\sc3nc(-c4ccc(C(=O)O)cc4)cn3c2=O)cc(Cl)c1O [Example 98, 4-{2-[1-(3-Chloro-4-hydroxy-5-methoxy-phenyl)-meth-(Z)-ylidene]-3-oxo-2,3-dihydro-imidazo[2,1-b]thiazol-6-yl}-benzoic acid] | 21 | 1850
15 | COc1cc(/C=c2\sc3nc(-c4cccc(F)c4)cn3c2=O)cc(F)c1O [Example 58, 2-[1-(3-Fluoro-4-hydroxy-5-methoxy-phenyl)-meth-(Z)-ylidene]-6-(3-fluoro-phenyl)-imidazo[2,1-b]thiazol-3-one] | 19 | 752
16 | CCCOc1cc(/C=c2\sc3nc(-c4cnccc4C)cn3c2=O)cc(Cl)c1O [Example 109, 2-[1-(3-Chloro-4-hydroxy-5-propoxy-phenyl)-meth-(Z)-ylidene]-6-(4-methyl-pyridin-3-yl)-imidazo[2,1-b]thiazol-3-one] | 33 | 4920
17 | COc1cc(/C=c2\sc3nc(-c4ccncc4)cn3c2=O)cc(F)c1O [Example 69, 2-[1-(3-Fluoro-4-hydroxy-5-methoxy-phenyl)-meth-(Z)-ylidene]-6-(pyridin-4-yl)-imidazo[2,1-b]thiazol-3-one] | 20 | 620
18 | COc1cc(/C=c2\sc3nc(-c4cc(C)nc(C)c4)cn3c2=O)cc(OC)c1O [Example 17, 2-[1-(4-Hydroxy-3,5-dimethoxy-phenyl)-meth-(Z)-ylidene]-6-(2,6-dimethyl-pyridin-4-yl)-imidazo[2,1-b]thiazol-3-one] | 5 | 68
19 | COc1ccc(-c2cn3c(=O)/c(=C/c4cc(Cl)c(O)c(OC)c4)sc3n2)cc1OC [Example 99, 2-[1-(3-Chloro-4-hydroxy-5-methoxy-phenyl)-meth-(Z)-ylidene]-6-(3,4-dimethoxy-phenyl)-imidazo[2,1-b]thiazol-3-one] | 14 | 325
20 | COc1cccc(-c2cn3c(=O)/c(=C/c4cc(F)c(O)c(OC)c4)sc3n2)c1 [Example 47, 2-[1-(3-Fluoro-4-hydroxy-5-methoxy-phenyl)-meth-(Z)-ylidene]-6-(3-methoxy-phenyl)-imidazo[2,1-b]thiazol-3-one] | 17 | 540
21 | COc1cc(/C=c2\sc3nc(-c4cc(C)nc(C)c4)cn3c2=O)cc(Br)c1O [Example 65, 2-[1-(3-Bromo-4-hydroxy-5-methoxy-phenyl)-meth-(Z)-ylidene]-6-(2,6-dimethyl-pyridin-4-yl)-imidazo[2,1-b]thiazol-3-one] | 7 | 304
22 | COc1cc(/C=c2\sc3nc(-c4ccc(F)c(C(F)(F)F)c4)cn3c2=O)cc(Br)c1O [Example 46, 2-[1-(3-bromo-4-hydroxy-5-methoxy-phenyl)-meth-(Z)-ylidene]-6-(4-fluoro-3-(trifluoromethyl)-phenyl)-imidazo[2,1-b]thiazol-3-one] | 28 | 5910
23 | COc1cc(/C=c2\sc3nc(-c4cccc(OC(F)(F)F)c4)cn3c2=O)cc(OC)c1O [Example 18, 2-[1-(4-Hydroxy-3,5-dimethoxy-phenyl)-meth-(Z)-ylidene]-6-(3-trifluoromethoxy-phenyl)-imidazo[2,1-b]thiazol-3-one] | 4 | 114
24 | COc1ccc(-c2nc3s/c(=C\c4cc(F)c(O)c(OC)c4)c(=O)n3c2C)cc1 [Example 15, 2-[1-(3-Fluoro-4-hydroxy-5-methoxy-phenyl)-meth-(Z)-ylidene]-6-(4-methoxy-phenyl)-5-methyl-imidazo[2,1-b]thiazol-3-one] | 53 | 437
25 | COc1cc(/C=c2\sc3nc(-c4ccnc(C)c4)cn3c2=O)cc(F)c1O [Example 76, 2-[1-(3-Fluoro-4-hydroxy-5-methoxy-phenyl)-meth-(Z)-ylidene]-6-(2-methylpyridin-4-yl)-imidazo[2,1-b]thiazol-3-one] | 6 | 260
26 | COc1cc(/C=c2\sc3nc(-c4ccc(C(=O)N(C)CCCF)cc4)cn3c2=O)cc(F)c1O [Example 147] | 41 | 448
27 | COc1cc(/C=c2\sc3nc(-c4ccc(C(N)=O)cc4)cn3c2=O)cc(Cl)c1O [Example 101, 4-{2-[1-(3-Chloro-4-hydroxy-5-methoxy-phenyl)-meth-(Z)-ylidene]-3-oxo-2,3-dihydro-imidazo[2,1-b]thiazol-6-yl}-benzamide] | 2 | 792
28 | COc1cc(/C=c2\sc3nc(-c4ccc(Cl)cc4)cn3c2=O)cc(OC)c1O [Example 2, 6-(4-Chloro-phenyl)-2-[1-(4-hydroxy-3,5-dimethoxy-phenyl)-meth-(Z)-ylidene]-imidazo[2,1-b]thiazol-3-one] | 2 | 7
29 | COc1cc(/C=c2\sc3nc(-c4cccnc4)cn3c2=O)cc(Br)c1O [Example 72, 2-[1-(3-Bromo-4-hydroxy-5-methoxy-phenyl)-meth-(Z)-ylidene]-6-(pyridin-3-yl)-imidazo[2,1-b]thiazol-3-one] | 3 | 229
30 | COc1cc(/C=c2\sc3nc(-c4ccc(C(=O)NCCNC(=O)OC(C)(C)C)cc4)cn3c2=O)cc(Cl)c1O [Example 150, [2-(4-{2-[1-(3-Chloro-4-hydroxy-5-methoxy-phenyl)-meth-(Z)-ylidene]-3-oxo-2,3-dihydro-imidazo[2,1-b]thiazol-6-yl}-benzoylamino)-ethyl]-carbamic acid tert-butyl ester] | 1.8 | 118
